Results as given in ChEMBL document CHEMBL6103632, “Seven New Guanidine Derivatives and One New Hypoxanthine Derivative Isolated from the Scorpion Buthus martensii and Potential Anti-Neuroinflammatory Activity” (J Nat Prod, 2025).
Active and inactive are the calls of the source. The calls are words filed in the database; no cut-off is given here.

Columns and labels:
[1] = Cytotoxicity against mouse BV-2 cells assessed as cell viability at 20 uM incubated for 24 hr by CCK-8 assay; assay type: toxicity, cell-based; settings: read-out: Activity
[2] = system: BV-2; assay: Antineuroinflammatory activity in LPS-induced mouse BV-2 cells assessed as reduction in IL-1beta level at 20 uM pretreated with LPS for 4 hrs followed by compound treatment for 24 hrs by ELISA analysis; assay type: functional, cell-based
[3] = system: BV-2; assay: Antineuroinflammatory activity in LPS-induced mouse BV-2 cells assessed as reduction in TNF-alpha level at 20 uM pretreated with LPS for 4 hrs followed by compound treatment for 24 hrs by ELISA analysis; assay type: functional, cell-based
[4] = system: BV-2; assay: Antineuroinflammatory activity in LPS-induced mouse BV-2 cells assessed as reduction in IL-6 level at 20 uM pretreated with LPS for 4 hrs followed by compound treatment for 24 hrs by ELISA analysis; assay type: functional, cell-based
[5] = system: Mitochondrial membrane; assay: Induction of mitochondrial membrane potential in LPS-induced mouse BV-2 cells assessed as reduction in ratio of red to green fluorescence intensity at 20 uM pretreated with LPS for 4 hrs followed by compound treatment for 24 hrs by JC-1 staining based assay; assay type: cell membranes
[6] = system: BV-2; assay: Antineuroinflammatory activity in LPS-induced mouse BV-2 cells assessed as reduction in ROS level pretreated with LPS for 4 hrs followed by compound treatment for 24 hrs by ROS probe based microscopy; assay type: functional, cell-based; settings: dose 20.0 µM

Structure (SMILES)	viability at 24 h, 20 µM [1] [%]	further results
N=C(N)NCCCCNC(=O)Cc1ccc(O)cc1	> 75	
N=C(N)NCCCCNC(=O)Cc1cc(Cl)c(O)c(Cl)c1	> 75	
N=C(N)NCCCCNC(=O)Cc1ccccc1	> 75	
COc1cc(CC(=O)NCCCCNC(=N)N)ccc1O	> 75	Activity [2]: Active; Activity [3]: Active; Activity [4]: Active; Activity [5]: Active
N=C(N)NCCCCNC(=O)Cc1c[nH]c2ccccc12	> 75	
N=C(N)NCCCCNC(=O)c1cccnc1	> 75	
N=C(N)NCCCCn1cnc2ccccc2c1=O	> 75	
N=C(N)NCCCCNC(=O)c1ccccc1	> 75	
COc1ccc2[nH]cc(CCNC(C)=O)c2c1		Activity [6]: Dose-dependent-effect
N=C(N)NCCCCNC(=O)c1ccc(O)cc1	> 75	
N=C(N)NCCCCNC(=O)c1c[nH]c2ccccc12	> 75	
CCC/C=C/C(=O)NCCCCNC(=N)N	> 75	
N=C(N)NCCCCNC(=O)Cc1ccc(O)c(Cl)c1	> 75	
CC(=O)CC(C)(C)n1cnc2c(=O)[nH]cnc21	> 75	
